Reference: ChEMBL document CHEMBL5465560, “Selectivity Literature for EUbOPEN Chemogenomic Library” (2024)

Columns and labels:
[1] = system: Leucine-rich repeat serine/threonine-protein kinase 2 (Homo sapiens), Q5S007 [G2019S]; experiment: (§1) Selectivity interaction (KinomeScan (DiscoverX)) EUB0000655a LRRK2; details: at 10 µM
[2] = biological target: Leucine-rich repeat serine/threonine-protein kinase 2 (Homo sapiens, UniProt Q5S007); experiment: as §1; details: at 10 µM
[3] = biological target: Ribosomal protein S6 kinase alpha-2 (Homo sapiens) (UniProt Q15349); experiment: Selectivity interaction (KinomeScan (DiscoverX)) EUB0000655a RPS6KA2; details: at 10 µM
[4] = biological target: Ephrin type-A receptor 7 (Homo sapiens) (UniProt Q15375); experiment: Selectivity interaction (LanthaScreen Eu Kinase Binding Assay) EUB0001632a EPHA7; details: at 10 µM
[5] = biological target: T1, Inhibitor of nuclear factor kappa-B kinase subunit alpha (Homo sapiens) (UniProt O15111); experiment: Selectivity interaction (KinomeScan (DiscoverX)) EUB0000695a CHUK; details: at 100 nM
T1 sequence (whole entry): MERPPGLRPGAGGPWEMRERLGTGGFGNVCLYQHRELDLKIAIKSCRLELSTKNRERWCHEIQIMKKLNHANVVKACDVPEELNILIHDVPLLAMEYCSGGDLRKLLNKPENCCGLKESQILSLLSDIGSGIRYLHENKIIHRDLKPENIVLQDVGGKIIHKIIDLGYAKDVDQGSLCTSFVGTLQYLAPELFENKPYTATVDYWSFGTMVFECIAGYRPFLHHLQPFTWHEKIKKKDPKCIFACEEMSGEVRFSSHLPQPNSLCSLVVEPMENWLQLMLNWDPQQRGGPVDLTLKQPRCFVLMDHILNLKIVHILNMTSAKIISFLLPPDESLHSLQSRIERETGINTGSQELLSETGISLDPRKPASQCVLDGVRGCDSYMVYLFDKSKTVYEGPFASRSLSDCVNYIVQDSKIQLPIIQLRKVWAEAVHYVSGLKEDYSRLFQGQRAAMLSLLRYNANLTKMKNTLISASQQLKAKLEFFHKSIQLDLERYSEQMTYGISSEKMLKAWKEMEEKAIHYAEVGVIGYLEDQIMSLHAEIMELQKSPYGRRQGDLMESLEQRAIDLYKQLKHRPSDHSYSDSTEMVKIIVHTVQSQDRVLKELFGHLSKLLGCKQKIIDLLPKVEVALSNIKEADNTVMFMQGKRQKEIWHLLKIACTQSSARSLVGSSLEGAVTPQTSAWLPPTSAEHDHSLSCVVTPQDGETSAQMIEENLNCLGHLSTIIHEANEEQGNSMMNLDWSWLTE

[6] = biological target: T2, Mitogen-activated protein kinase kinase kinase 13 (Homo sapiens) (UniProt O43283); experiment: Selectivity interaction (KinomeScan (DiscoverX)) EUB0001619a MAP3K13; details: at 1 µM
T2 sequence (whole entry): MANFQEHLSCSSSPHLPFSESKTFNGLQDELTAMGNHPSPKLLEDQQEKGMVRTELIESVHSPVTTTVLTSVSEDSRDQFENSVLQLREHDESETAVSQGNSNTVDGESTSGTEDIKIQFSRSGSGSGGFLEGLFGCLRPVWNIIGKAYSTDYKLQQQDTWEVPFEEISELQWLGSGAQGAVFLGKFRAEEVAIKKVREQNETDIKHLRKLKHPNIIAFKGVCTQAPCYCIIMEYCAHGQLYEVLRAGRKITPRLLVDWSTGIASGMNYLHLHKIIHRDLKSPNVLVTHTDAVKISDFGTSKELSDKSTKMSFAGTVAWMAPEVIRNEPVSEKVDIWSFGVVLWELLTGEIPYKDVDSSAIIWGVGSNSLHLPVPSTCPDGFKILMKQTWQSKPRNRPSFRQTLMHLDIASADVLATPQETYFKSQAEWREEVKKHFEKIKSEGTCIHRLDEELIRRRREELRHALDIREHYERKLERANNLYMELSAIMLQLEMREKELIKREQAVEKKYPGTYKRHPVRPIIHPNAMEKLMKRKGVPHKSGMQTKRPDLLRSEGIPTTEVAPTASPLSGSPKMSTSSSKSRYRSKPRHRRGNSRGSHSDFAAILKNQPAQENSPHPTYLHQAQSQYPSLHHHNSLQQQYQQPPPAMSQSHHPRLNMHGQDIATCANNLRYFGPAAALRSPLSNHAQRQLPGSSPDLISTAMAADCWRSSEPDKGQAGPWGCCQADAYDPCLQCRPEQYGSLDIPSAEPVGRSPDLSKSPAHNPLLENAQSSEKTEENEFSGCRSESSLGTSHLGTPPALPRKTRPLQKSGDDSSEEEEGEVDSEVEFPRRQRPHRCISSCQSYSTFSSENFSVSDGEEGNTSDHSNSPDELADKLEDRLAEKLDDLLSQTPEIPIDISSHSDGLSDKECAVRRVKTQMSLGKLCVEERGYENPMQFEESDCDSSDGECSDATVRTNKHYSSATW

[7] = biological target: T3, Mitogen-activated protein kinase kinase kinase kinase 2 (Homo sapiens) (UniProt Q12851); experiment: Selectivity interaction (KinomeScan (DiscoverX)) EUB0001619a MAP4K2; details: at 1 µM
T3 sequence (whole entry): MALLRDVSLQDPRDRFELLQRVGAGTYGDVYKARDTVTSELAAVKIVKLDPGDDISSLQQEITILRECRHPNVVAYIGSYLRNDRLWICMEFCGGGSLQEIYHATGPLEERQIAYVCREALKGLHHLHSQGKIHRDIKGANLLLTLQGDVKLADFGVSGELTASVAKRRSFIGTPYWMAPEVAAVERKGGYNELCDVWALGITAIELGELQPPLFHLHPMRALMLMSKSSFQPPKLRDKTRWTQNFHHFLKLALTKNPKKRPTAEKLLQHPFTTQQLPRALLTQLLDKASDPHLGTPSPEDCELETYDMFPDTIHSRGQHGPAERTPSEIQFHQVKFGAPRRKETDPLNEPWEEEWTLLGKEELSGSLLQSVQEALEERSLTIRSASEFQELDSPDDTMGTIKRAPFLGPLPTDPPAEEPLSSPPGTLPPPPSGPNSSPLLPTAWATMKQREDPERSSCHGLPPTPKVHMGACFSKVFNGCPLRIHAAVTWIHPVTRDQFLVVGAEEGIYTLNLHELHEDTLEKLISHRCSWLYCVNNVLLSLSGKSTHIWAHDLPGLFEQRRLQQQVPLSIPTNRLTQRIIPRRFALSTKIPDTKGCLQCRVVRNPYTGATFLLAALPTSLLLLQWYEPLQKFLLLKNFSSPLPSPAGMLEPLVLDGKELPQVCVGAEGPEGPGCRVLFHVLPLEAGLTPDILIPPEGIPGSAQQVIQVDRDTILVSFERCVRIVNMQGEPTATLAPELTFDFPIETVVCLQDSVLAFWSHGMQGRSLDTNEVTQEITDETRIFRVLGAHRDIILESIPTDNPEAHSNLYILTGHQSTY

Sequence of Leucine-rich repeat serine/threonine-protein kinase 2 (Q5S007 whole entry): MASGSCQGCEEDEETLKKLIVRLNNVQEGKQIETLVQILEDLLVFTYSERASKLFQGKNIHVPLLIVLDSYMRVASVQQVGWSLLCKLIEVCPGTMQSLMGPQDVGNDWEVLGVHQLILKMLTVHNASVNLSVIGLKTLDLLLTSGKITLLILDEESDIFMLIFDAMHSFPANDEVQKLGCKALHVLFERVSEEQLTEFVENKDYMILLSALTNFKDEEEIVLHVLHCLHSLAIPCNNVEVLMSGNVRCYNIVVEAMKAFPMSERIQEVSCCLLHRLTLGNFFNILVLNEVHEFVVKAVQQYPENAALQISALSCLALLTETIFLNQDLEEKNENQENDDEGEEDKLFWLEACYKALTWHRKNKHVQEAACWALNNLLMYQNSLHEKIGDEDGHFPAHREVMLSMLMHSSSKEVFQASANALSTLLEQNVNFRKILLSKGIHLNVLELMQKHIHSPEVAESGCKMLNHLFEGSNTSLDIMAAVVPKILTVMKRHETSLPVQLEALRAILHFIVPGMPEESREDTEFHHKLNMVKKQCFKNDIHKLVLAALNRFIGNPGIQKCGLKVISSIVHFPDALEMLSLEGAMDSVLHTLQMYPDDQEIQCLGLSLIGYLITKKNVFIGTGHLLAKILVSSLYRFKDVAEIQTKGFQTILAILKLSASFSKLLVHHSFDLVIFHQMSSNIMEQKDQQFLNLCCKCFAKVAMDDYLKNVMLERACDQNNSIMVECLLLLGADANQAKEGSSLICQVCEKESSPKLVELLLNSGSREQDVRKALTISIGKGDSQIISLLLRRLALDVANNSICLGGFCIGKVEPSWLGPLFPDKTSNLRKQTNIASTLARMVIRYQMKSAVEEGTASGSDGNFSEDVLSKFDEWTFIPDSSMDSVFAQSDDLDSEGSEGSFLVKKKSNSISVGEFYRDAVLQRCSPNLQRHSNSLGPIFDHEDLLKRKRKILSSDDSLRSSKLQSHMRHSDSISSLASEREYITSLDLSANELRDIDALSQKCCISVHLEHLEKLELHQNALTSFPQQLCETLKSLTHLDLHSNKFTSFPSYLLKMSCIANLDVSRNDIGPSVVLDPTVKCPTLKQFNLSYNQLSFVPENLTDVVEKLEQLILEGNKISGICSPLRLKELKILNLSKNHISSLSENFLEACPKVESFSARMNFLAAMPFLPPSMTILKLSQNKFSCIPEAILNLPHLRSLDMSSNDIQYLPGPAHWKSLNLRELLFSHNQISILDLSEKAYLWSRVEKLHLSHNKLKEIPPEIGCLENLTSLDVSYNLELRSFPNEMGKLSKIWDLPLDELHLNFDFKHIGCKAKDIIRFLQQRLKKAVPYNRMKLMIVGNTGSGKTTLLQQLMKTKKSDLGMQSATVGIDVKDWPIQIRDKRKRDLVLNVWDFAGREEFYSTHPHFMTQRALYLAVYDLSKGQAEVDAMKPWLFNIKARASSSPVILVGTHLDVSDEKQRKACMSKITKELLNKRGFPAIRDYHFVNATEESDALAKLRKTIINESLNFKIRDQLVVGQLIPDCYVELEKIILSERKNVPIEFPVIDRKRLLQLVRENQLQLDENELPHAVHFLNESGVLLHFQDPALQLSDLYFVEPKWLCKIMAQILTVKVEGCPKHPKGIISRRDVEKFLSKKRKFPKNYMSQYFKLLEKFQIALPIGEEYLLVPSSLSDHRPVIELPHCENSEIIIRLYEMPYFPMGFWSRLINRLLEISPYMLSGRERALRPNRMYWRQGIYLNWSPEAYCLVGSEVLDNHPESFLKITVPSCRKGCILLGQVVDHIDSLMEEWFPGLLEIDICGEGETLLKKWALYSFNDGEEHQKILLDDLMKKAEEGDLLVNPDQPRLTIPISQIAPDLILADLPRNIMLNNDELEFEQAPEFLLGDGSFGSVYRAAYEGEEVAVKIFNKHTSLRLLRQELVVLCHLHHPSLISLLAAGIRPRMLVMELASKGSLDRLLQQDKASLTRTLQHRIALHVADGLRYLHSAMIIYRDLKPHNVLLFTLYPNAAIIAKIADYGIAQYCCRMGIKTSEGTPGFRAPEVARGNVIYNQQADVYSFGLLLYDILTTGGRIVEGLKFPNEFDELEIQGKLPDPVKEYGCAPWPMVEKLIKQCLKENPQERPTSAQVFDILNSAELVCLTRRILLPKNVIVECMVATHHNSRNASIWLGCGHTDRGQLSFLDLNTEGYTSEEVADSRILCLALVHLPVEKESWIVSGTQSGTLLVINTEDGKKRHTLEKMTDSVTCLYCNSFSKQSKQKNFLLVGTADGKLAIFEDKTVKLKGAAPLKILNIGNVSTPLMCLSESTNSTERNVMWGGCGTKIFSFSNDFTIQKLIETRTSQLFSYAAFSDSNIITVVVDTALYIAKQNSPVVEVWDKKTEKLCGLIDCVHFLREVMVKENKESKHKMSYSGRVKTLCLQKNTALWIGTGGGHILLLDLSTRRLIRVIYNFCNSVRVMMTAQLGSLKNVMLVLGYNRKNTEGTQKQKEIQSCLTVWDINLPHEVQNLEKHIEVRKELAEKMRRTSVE
Sequence of Ephrin type-A receptor 7 (Homo sapiens) (Q15375 28-998 limits assumed): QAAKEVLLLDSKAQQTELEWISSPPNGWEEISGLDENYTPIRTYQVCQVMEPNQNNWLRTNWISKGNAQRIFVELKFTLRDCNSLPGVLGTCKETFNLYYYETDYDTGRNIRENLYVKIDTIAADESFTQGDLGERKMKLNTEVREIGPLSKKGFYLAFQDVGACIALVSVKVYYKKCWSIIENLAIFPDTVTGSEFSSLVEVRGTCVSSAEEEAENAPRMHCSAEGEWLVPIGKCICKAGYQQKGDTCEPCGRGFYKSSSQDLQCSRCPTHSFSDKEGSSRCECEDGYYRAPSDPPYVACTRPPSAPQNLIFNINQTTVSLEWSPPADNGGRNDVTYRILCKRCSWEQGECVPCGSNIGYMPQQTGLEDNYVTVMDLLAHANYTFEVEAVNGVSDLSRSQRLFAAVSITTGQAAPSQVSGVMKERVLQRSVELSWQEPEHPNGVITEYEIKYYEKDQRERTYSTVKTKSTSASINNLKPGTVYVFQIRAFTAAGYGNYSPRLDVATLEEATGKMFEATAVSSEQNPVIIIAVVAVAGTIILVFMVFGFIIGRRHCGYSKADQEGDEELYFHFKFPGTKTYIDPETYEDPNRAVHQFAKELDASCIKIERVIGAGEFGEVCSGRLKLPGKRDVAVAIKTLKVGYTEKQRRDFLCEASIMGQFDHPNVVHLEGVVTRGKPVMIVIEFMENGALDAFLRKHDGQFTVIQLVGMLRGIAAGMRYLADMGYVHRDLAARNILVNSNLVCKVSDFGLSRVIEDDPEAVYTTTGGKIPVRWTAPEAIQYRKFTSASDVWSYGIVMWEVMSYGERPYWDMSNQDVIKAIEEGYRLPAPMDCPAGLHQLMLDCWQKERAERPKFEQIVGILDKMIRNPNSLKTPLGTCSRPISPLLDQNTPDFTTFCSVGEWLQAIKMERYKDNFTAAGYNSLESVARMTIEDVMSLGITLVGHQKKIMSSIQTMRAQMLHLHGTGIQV
Sequence of Leucine-rich repeat serine/threonine-protein kinase 2 (Homo sapiens), Q5S007 [G2019S] (Q5S007 whole entry G2019S): as the sequence (Q5S007 whole entry) above, with G2019S counted along it
Sequence of Ribosomal protein S6 kinase alpha-2 (Homo sapiens) (Q15349 whole entry): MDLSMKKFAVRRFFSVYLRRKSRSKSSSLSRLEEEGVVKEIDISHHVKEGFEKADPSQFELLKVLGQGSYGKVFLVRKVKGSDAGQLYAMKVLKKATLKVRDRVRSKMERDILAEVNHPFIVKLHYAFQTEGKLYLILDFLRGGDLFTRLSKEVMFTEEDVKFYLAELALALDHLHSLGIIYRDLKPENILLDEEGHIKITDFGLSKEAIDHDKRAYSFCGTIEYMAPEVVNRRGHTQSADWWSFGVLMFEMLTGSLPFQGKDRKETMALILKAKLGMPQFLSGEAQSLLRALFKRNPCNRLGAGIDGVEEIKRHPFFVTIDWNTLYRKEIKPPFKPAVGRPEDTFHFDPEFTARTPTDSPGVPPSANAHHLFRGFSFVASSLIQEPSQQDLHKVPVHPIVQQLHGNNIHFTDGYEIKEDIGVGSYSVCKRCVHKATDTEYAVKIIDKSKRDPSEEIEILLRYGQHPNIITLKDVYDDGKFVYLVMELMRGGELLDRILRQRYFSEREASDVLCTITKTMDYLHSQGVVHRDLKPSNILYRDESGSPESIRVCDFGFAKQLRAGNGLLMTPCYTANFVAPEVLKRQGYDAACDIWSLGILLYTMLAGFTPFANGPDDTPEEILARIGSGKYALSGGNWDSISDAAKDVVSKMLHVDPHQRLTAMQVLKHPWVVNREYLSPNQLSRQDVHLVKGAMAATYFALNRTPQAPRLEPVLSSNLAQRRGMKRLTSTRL

**Q.** Which results are given for `CN(C)CCOc1ccc(-c2nc(-c3ccncc3)c(-c3ccc4c(c3)CC/C4=N\O)[nH]2)cc1`?
**A.** % of control [1]: 76%; % of control [2]: 79%; % of control [3]: 100%

**Q.** `Cn1cc(-n2cnc3c(NCc4nc5cc(Cl)c(Cl)cc5[nH]4)nc(N4CCOCC4)nc32)cn1` was tested. Which % of inhibition [4] did it give?
**A.** The % of inhibition was -69.8%.

**Q.** Which % of control [5] does the source give for `Cc1cc(F)c(C(=O)Nc2cccc(-c3nncn3C(C)C)n2)cc1-n1cnc(C2CC2)c1` here?
**A.** The % of control was 100%.

**Q.** How did the % of control [6] turn out when `N#Cc1cccc(-c2c[nH]c3ncnc(N4CCOCC4)c23)c1` was run?
**A.** Its % of control is 62%.

**Q.** What about the % of control [7] of the same compound?
**A.** Its % of control is 3.4%.
